This is an account of results in paper PMC7416039 (Pharmacology Research & Perspectives, 2020).

A short description of data set [1]: Metabolism of secnidazole in human liver microsomes. Format: in vitro ADME. Conditions: human, human liver microsomes, pH 7.4.
For data set [2], the target named is T1, CYP2C8 (Homo sapiens, UniProt P10632).
T1 sequence (P10632 1-490): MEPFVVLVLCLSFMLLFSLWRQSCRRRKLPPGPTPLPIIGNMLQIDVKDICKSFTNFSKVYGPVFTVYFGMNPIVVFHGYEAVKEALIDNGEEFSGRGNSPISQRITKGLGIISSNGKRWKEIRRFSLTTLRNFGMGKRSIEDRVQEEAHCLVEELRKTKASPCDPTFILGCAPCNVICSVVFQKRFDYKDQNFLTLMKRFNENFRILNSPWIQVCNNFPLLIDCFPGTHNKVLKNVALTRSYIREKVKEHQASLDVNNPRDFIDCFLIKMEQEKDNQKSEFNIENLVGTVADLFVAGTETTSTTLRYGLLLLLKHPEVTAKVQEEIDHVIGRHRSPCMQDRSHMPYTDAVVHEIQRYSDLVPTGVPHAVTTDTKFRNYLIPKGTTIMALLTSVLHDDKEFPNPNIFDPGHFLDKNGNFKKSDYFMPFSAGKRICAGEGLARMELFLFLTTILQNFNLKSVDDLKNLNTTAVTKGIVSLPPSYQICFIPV
The data set is described as follows: Direct inhibition of CYP isoforms in HLM.

Data set [3] concerns the target T2, CYP2D6 (Homo sapiens, UniProt P10635). The data set is described as follows: Direct inhibition of CYP isoforms in HLM.
Data set [4] has as its target T2, CYP2D6. Briefly: Time-dependent inhibition of CYP isoforms in HLM.

T2 sequence (P10635 whole entry, canonical isoform): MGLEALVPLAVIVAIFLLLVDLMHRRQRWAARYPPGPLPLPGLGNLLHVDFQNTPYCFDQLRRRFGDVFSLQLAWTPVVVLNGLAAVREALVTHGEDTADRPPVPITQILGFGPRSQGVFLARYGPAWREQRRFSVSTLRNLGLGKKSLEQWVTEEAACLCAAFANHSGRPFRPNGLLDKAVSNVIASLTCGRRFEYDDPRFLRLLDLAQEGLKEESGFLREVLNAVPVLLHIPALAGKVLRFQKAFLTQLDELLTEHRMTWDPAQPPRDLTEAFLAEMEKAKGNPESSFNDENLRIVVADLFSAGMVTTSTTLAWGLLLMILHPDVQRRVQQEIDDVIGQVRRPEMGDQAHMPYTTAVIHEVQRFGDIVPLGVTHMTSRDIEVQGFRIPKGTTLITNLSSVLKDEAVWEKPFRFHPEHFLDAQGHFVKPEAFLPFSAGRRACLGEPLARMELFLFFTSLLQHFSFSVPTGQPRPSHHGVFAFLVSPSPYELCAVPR

Consider `Cc1ncc([N+](=O)[O-])n1CC(C)O` (centres unmarked) [secnidazole], for which, in data set [1], the Km was above 6.4 mM. The figures for the IC50 in data set [2], in data set [3] and in data set [4] were above 5 mM, above 5 mM and above 500 µM, respectively. In data set [3] (HLM, CYP2D6), the “direct inhibition (in words)” value is on record as “some clear concentration‐dependent inhibition at higher concentration”.
